From BigSolDB 2.1

Cc1ccc(-c2cc(C(F)(F)F)nn2-c2ccc(S(N)(=O)=O)cc2)cc1
solubility (mole fraction) (in NMP, 293.2 K): 0.0593
solubility (mole fraction) (in NMP, 298.2 K): 0.0672
solubility (mole fraction) (in NMP, 303.2 K): 0.0776
solubility (mole fraction) (in NMP, 308.2 K): 0.0799
solubility (mole fraction) (in NMP, 313.2 K): 0.0917
solubility (mole fraction) (in isopropanol, 293.2 K): 0.00851
solubility (mole fraction) (in isopropanol, 298.2 K): 0.00902
solubility (mole fraction) (in isopropanol, 303.2 K): 0.0156
solubility (mole fraction) (in isopropanol, 308.2 K): 0.0198
solubility (mole fraction) (in isopropanol, 313.2 K): 0.0233
